Biological target: human Gal-3 (hGal-3) (Homo sapiens (Human), UniProt P17931)
Test: competitive binding assay: binding of biotinylated hGal-3 to microplate-adsorbed asialofetuin (ASF), spectrophotometric
Conditions: Activity on hGal-3; mean values of several measurements
Experimental: Evaluation of Compound Inhibitory Activity (IC50)
The inhibitory activity of compounds is determined in competitive binding assays. This spectrophotometric assay measures the binding of biotinylated human Gal-3 (hGal-3) or human Gal-1 (hGal-1), respectively, to a microplate-adsorbed glycoprotein, asialofetuin (ASF) (Proc Natl Acad Sci USA. 2013 Mar. 26; 110(13):5052-7.). Alternatively, and preferably, a human Gal-1 version in which all six cysteines are substituted by serines may be used.
Briefly, compounds are serially diluted in DMSO (working dilutions). ASF-coated 384 well plates are supplemented with 22.8 μL/well of biotinylated hGal-3 or hGal-1 in assay buffer (i.e. 300-1000 ng/mL biotinylated hGal-3 or hGal-1) to which 1.2 μL of compound working dilutions are added and mixed.
Plates are incubated for 3 hours at 4° C., then washed with cold assay buffer (3×50 uL), incubated for 1 hour with 25 μL/well of a streptavidin-peroxidase solution (diluted in assay buffer to 80 ng/mL) at 4° C., followed by further washing steps with assay buffer (3×50 uL). Finally, 25 μL/well of ABTS substrate is added.
The calculated IC50 values may fluctuate depending on the daily assay performance. Fluctuations of this kind are known to those skilled in the art. IC50 values from several measurements are given as mean values.

Sequence of human Gal-3 (hGal-3) (P17931 whole entry): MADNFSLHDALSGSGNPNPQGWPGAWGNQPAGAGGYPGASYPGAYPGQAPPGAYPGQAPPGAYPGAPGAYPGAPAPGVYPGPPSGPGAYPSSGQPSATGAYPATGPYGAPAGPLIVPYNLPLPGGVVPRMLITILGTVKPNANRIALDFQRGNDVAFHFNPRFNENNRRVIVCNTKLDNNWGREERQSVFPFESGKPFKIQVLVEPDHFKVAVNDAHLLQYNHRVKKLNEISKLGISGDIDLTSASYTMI

SMILES | IC50
CO[C@@H]1[C@@H](n2cc(-c3cc(F)c(Br)c(F)c3)nn2)[C@@H](O)[C@@H](CO)O[C@H]1C(=O)N(c1cc(Cl)cc(C#N)c1)[C@@H]1CCC[C@H]1O [Example 1.6.4R, (2R,3R,4S,5R,6R)-4-(4-(4-bromo-3,5-difluorophenyl)-1H-1,2,3-triazol-1-yl)-N-(3-chloro-5-cyanophenyl)-5-hydroxy-N-((1R,2R)-2-hydroxycyclopentyl)-6-(hydroxymethyl)-3-methoxytetrahydro-2H-pyran-2-carboxamide] | 214 nM
CO[C@@H]1[C@@H](n2cc(-c3cc(F)c(F)c(Cl)c3)nn2)[C@@H](O)[C@@H](CO)O[C@H]1C(=O)N(c1cc(Cl)cc(C#N)c1)[C@@H]1CCC[C@H]1O [Example 1.7.4R, (2R,3R,4S,5R,6R)-4-(4-(3-chloro-4,5-difluorophenyl)-1H-1,2,3-triazol-1-yl)-N-(3-chloro-5-cyanophenyl)-5-hydroxy-N-((1R,2R)-2-hydroxycyclopentyl)-6-(hydroxymethyl)-3-methoxytetrahydro-2H-pyran-2-carboxamide] | 103 nM
CO[C@@H]1[C@@H](n2cc(-c3cc(F)c(F)c(Cl)c3)nn2)[C@@H](O)[C@@H](CO)O[C@H]1C(=O)N(c1cc(Br)cc(C#N)c1)[C@H]1CCC[C@@H]1O [Example 1.7.5, (2R,3R,4S,5R,6R)-N-(3-bromo-5-cyanophenyl)-4-(4-(3-chloro-4,5-difluorophenyl)-1H-1,2,3-triazol-1-yl)-5-hydroxy-N-((1S,2S)-2-hydroxycyclopentyl)-6-(hydroxymethyl)-3-methoxytetrahydro-2H-pyran-2-carboxamide] | 21.2 nM
CO[C@@H]1[C@@H](n2cc(-c3ccc(Cl)c(Cl)c3)nn2)[C@@H](O)[C@@H](CO)O[C@H]1C(=O)N(c1cc(Cl)cc(C#N)c1)[C@H]1CCC[C@@H]1O [Example 1.8.4, (2R,3R,4S,5R,6R)-N-(3-chloro-5-cyanophenyl)-4-(4-(3,4-dichlorophenyl)-1H-1,2,3-triazol-1-yl)-5-hydroxy-N-((1S,2S)-2-hydroxycyclopentyl)-6-(hydroxymethyl)-3-methoxytetrahydro-2H-pyran-2-carboxamide] | 75.9 nM
CO[C@@H]1[C@@H](n2cc(-c3ccc(Cl)c(Cl)c3)nn2)[C@@H](O)[C@@H](CO)O[C@H]1C(=O)N(c1cc(Br)cc(C#N)c1)[C@H]1CCC[C@@H]1O [Example 1.8.5, (2R,3R,4S,5R,6R)-N-(3-bromo-5-cyanophenyl)-4-(4-(3,4-dichlorophenyl)-1H-1,2,3-triazol-1-yl)-5-hydroxy-N-((1S,2S)-2-hydroxycyclopentyl)-6-(hydroxymethyl)-3-methoxytetrahydro-2H-pyran-2-carboxamide] | 40.8 nM
CO[C@@H]1[C@@H](n2cc(-c3cc(F)cc(Br)c3)nn2)[C@@H](O)[C@@H](CO)O[C@H]1C(=O)N(c1cc(Cl)cc(C#N)c1)[C@@H]1CCC[C@H]1O [Example 1.10.4R, (2R,3R,4S,5R,6R)-4-(4-(3-bromo-5-fluorophenyl)-1H-1,2,3-triazol-1-yl)-N-(3-chloro-5-cyanophenyl)-5-hydroxy-N-((1R,2R)-2-hydroxycyclopentyl)-6-(hydroxymethyl)-3-methoxytetrahydro-2H-pyran-2-carboxamide] | 699 nM
CO[C@@H]1[C@@H](n2cc(-c3cc(F)cc(Br)c3)nn2)[C@@H](O)[C@@H](CO)O[C@H]1C(=O)N(c1cc(Br)cc(C#N)c1)[C@@H]1CCC[C@H]1O [Example 1.10.5R, (2R,3R,4S,5R,6R)-N-(3-bromo-5-cyanophenyl)-4-(4-(3-bromo-5-fluorophenyl)-1H-1,2,3-triazol-1-yl)-5-hydroxy-N-((1R,2R)-2-hydroxycyclopentyl)-6-(hydroxymethyl)-3-methoxytetrahydro-2H-pyran-2-carboxamide] | 508 nM
CO[C@@H]1[C@@H](n2cc(-c3cc(F)cc(Br)c3)nn2)[C@@H](O)[C@@H](CO)O[C@H]1C(=O)N(c1cc(F)cc(C#N)c1)[C@H]1CCC[C@@H]1O [Example 1.10.7, (2R,3R,4S,5R,6R)-4-(4-(3-bromo-5-fluorophenyl)-1H-1,2,3-triazol-1-yl)-N-(3-cyano-5-fluorophenyl)-5-hydroxy-N-((1S,2S)-2-hydroxycyclopentyl)-6-(hydroxymethyl)-3-methoxytetrahydro-2H-pyran-2-carboxamide] | 146 nM
CO[C@@H]1[C@@H](n2cc(-c3cc(F)cc(Br)c3)nn2)[C@@H](O)[C@@H](CO)O[C@H]1C(=O)N(c1cc(F)cc(C#N)c1)[C@@H]1CCC[C@H]1O [Example 1.10.7R, (2R,3R,4S,5R,6R)-4-(4-(3-bromo-5-fluorophenyl)-1H-1,2,3-triazol-1-yl)-N-(3-cyano-5-fluorophenyl)-5-hydroxy-N-((1R,2R)-2-hydroxycyclopentyl)-6-(hydroxymethyl)-3-methoxytetrahydro-2H-pyran-2-carboxamide] | 1030 nM
CO[C@@H]1[C@@H](n2cc(-c3cc(F)cc(Br)c3)nn2)[C@@H](O)[C@@H](CO)O[C@H]1C(=O)N(c1cc(C)cc(C#N)c1)[C@H]1CCC[C@@H]1O [Example 1.10.8, (2R,3R,4S,5R,6R)-4-(4-(3-bromo-5-fluorophenyl)-1H-1,2,3-triazol-1-yl)-N-(3-cyano-5-methylphenyl)-5-hydroxy-N-((1S,2S)-2-hydroxycyclopentyl)-6-(hydroxymethyl)-3-methoxytetrahydro-2H-pyran-2-carboxamide] | 157 nM
COc1cc(C#N)cc(N(C(=O)[C@@H]2O[C@H](CO)[C@H](O)[C@H](n3cc(-c4cc(F)cc(Br)c4)nn3)[C@H]2OC)[C@@H]2CCC[C@H]2O)c1 [Example 1.10.9R, (2R,3R,4S,5R,6R)-4-(4-(3-bromo-5-fluorophenyl)-1H-1,2,3-triazol-1-yl)-N-(3-cyano-5-methoxyphenyl)-5-hydroxy-N-((1R,2R)-2-hydroxycyclopentyl)-6-(hydroxymethyl)-3-methoxytetrahydro-2H-pyran-2-carboxamide] | 1200 nM

Further compounds by falling IC50, results first:

IC50 | SMILES
1120 nM | CO[C@@H]1[C@@H](n2cc(-c3cc(F)cc(Br)c3)nn2)[C@@H](O)[C@@H](CO)O[C@H]1C(=O)N(c1cc(C)cc(C#N)c1)[C@@H]1CCC[C@H]1O [Example 1.10.8R, (2R,3R,4S,5R,6R)-4-(4-(3-bromo-5-fluorophenyl)-1H-1,2,3-triazol-1-yl)-N-(3-cyano-5-methylphenyl)-5-hydroxy-N-((1R,2R)-2-hydroxycyclopentyl)-6-(hydroxymethyl)-3-methoxytetrahydro-2H-pyran-2-carboxamide]
330 nM | CO[C@@H]1[C@@H](n2cc(-c3ccc(Cl)c(Cl)c3)nn2)[C@@H](O)[C@@H](CO)O[C@H]1C(=O)N(c1cc(Cl)cc(C#N)c1)[C@@H]1CCC[C@H]1O [Example 1.8.4R, (2R,3R,4S,5R,6R)-N-(3-chloro-5-cyanophenyl)-4-(4-(3,4-dichlorophenyl)-1H-1,2,3-triazol-1-yl)-5-hydroxy-N-((1R,2R)-2-hydroxycyclopentyl)-6-(hydroxymethyl)-3-methoxytetrahydro-2H-pyran-2-carboxamide]
174 nM | COc1cc(C#N)cc(N(C(=O)[C@@H]2O[C@H](CO)[C@H](O)[C@H](n3cc(-c4cc(F)cc(Br)c4)nn3)[C@H]2OC)[C@H]2CCC[C@@H]2O)c1 [Example 1.10.9, (2R,3R,4S,5R,6R)-4-(4-(3-bromo-5-fluorophenyl)-1H-1,2,3-triazol-1-yl)-N-(3-cyano-5-methoxyphenyl)-5-hydroxy-N-((1S,2S)-2-hydroxycyclopentyl)-6-(hydroxymethyl)-3-methoxytetrahydro-2H-pyran-2-carboxamide]
58.3 nM | CO[C@@H]1[C@@H](n2cc(-c3cc(F)cc(Br)c3)nn2)[C@@H](O)[C@@H](CO)O[C@H]1C(=O)N(c1cc(Cl)cc(C#N)c1)[C@H]1CCC[C@@H]1O [Example 1.10.4, (2R,3R,4S,5R,6R)-4-(4-(3-bromo-5-fluorophenyl)-1H-1,2,3-triazol-1-yl)-N-(3-chloro-5-cyanophenyl)-5-hydroxy-N-((1S,2S)-2-hydroxycyclopentyl)-6-(hydroxymethyl)-3-methoxytetrahydro-2H-pyran-2-carboxamide]
33.4 nM | CO[C@@H]1[C@@H](n2cc(-c3cc(F)c(F)c(Cl)c3)nn2)[C@@H](O)[C@@H](CO)O[C@H]1C(=O)N(c1cc(Cl)cc(C#N)c1)[C@H]1CCC[C@@H]1O [Example 1.7.4, (2R,3R,4S,5R,6R)-4-(4-(3-chloro-4,5-difluorophenyl)-1H-1,2,3-triazol-1-yl)-N-(3-chloro-5-cyanophenyl)-5-hydroxy-N-((1S,2S)-2-hydroxycyclopentyl)-6-(hydroxymethyl)-3-methoxytetrahydro-2H-pyran-2-carboxamide]
22.9 nM | CO[C@@H]1[C@@H](n2cc(-c3cc(F)cc(Cl)c3)nn2)[C@@H](O)[C@@H](CO)O[C@H]1C(=O)N(c1cc(Br)cc(C#N)c1)[C@H]1CCC[C@@H]1O [Example 1.9.5, (2R,3R,4S,5R,6R)-N-(3-bromo-5-cyanophenyl)-4-(4-(3-chloro-5-fluorophenyl)-1H-1,2,3-triazol-1-yl)-5-hydroxy-N-((1S,2S)-2-hydroxycyclopentyl)-6-(hydroxymethyl)-3-methoxytetrahydro-2H-pyran-2-carboxamide]
